Values after ≈ are worked out from the molar mass of the structure shown.
What was measured:
COX-2 = target: T1, COX-2 (Mus musculus, UniProt Q05769); experiment: Evaluation of COX-2 activity: PGE2 formation in aspirin-treated, LPS-stimulated mouse peritoneal macrophages; assay type: cell-based
T1 sequence (Q05769 18-604): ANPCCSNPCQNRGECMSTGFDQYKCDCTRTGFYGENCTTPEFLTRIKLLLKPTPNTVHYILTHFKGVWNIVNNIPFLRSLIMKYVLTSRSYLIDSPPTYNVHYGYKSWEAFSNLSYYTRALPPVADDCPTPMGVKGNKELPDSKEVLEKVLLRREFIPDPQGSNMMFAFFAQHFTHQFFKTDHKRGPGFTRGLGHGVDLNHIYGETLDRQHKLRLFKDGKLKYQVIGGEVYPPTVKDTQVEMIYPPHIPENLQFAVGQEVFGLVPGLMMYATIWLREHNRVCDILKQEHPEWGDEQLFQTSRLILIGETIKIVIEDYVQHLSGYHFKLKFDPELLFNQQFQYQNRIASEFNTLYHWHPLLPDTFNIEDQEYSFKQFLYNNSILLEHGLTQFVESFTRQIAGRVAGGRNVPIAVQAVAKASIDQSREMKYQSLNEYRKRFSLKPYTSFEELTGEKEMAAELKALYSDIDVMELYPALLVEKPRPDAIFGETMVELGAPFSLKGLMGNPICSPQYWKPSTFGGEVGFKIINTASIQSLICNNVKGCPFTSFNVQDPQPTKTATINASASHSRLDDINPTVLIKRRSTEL
Procedure: (§1) Evaluation of in vitro COX-2 and COX-1 Activity [J. Pharmacol. Exp. Ther. 166, 96 (1969)]
(§2) The abdominal skin of a C57BL/6 mouse was sanitized with 70% aqueous ethanol, and was removed without damaging the peritoneum. 5 ml of cold phosphate buffer solution (PBS) was then injected into the abdominal cavity. After a minute, the peritoneal fluid containing the macrophages was collected using a syringe and a needle. The collected fluid was centrifuged for 5 min at 1500 rpm to afford pellets of cells. The pellets were then dispersed in the RPMI-1640 culture medium containing 100 units/ml penicillin and 100 μg/ml streptomycin.
The pellets dispersed as above were treated with 500 μM aspirin in order to knock out the activity of the COX-1 enzymes in the cells. The suspension was then diluted with the RPMI-1640 medium to contain 1×10^6 cells/ml. 100 μl of the suspension was added to each well of a 96-well ELISA plate. Then the plate was incubated for 2 hrs at 37° C. under 5% CO2 in order to fix the macrophages onto the plate. The cells, which were not fixed onto the plate were removed by washing with PBS two times. […] The RPMI-1640 medium containing 3% fetal bovine serum albumin was added to each well of the plate, which was followed by stimulation with 10 μg/ml lipopolysaccharide (LPS). […] The LPS-treated suspensions were incubated for 16 hours at 37° C. under 5% CO2 to induce COX-2. Then the culture medium was removed and the macrophages were washed two times with PBS. Then 130 μl RPMI-1640 culture medium was added to each well and the macrophage solutions were incubated at 37° C. for 10 minutes, which was followed by the treatment with 10 μM arachidonic acid and an appropriate amount of compounds of this invention. The plate was incubated for another 10 minutes. The upper solution was collected using a micropipette and was subjected to determination of PGE2 amount in the solution. The amount of PGE2 present in the collected solution was determined either by a known radio-immuno assay or by a known enzyme-immunoassay [Methods in Enzymol. 86, 258 (1982); Methods in Enzymol. 187, 24 (1990)]. The extent of COX-2 inhibition by a compound of the present invention was calculated by assuming, that the amount of PGE2 formed with the treatment of 10 μg/ml arachidonic acid was used is the maximum possible amount of PGE2, and that the amount of PGE2 formed without the treatment of arachidonic acid is the minimum possible amount of PGE2.
(§3) In order to determine IC50 for a compound of this invention, enzymatic activities were measured at multiple concentrations of compounds of this invention around IC50 of the compound. Usually enzymatic activities at 4˜5 concentrations were measured to calculate out IC50 for a compound of this invention.

COX-1 = target: T2, COX-1 (Mus musculus, UniProt P22437); experiment: Evaluation of COX-1 activity: PGE2 formation in mouse peritoneal macrophages without aspirin and LPS treatment; assay type: cell-based
T2 sequence (P22437 27-602): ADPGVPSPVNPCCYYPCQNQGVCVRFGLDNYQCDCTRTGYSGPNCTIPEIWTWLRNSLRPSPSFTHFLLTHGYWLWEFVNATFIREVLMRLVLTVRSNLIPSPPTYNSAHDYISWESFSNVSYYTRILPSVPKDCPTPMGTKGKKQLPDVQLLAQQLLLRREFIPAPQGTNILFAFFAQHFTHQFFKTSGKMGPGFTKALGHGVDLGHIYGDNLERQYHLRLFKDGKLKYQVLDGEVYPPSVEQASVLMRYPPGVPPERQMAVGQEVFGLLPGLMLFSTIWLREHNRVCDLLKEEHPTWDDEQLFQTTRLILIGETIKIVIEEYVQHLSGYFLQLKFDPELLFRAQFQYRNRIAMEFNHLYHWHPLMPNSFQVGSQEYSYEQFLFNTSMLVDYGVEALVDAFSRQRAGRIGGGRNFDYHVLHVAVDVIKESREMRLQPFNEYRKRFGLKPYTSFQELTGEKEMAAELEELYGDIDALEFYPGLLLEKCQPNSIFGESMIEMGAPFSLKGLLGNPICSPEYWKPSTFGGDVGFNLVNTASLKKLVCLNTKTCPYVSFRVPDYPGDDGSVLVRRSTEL
Procedure: as §1, §2
The pellets dispersed as above were treated with 500 μM aspirin in order to knock out the activity of the COX-1 enzymes in the cells. The suspension was then diluted with the RPMI-1640 medium to contain 1×10^6 cells/ml. 100 μl of the suspension was added to each well of a 96-well ELISA plate. Then the plate was incubated for 2 hrs at 37° C. under 5% CO2 in order to fix the macrophages onto the plate. The cells, which were not fixed onto the plate were removed by washing with PBS two times. The purity of macrophages obtained thereby was confirmed by differential counting. The RPMI-1640 medium containing 3% fetal bovine serum albumin was added to each well of the plate, which was followed by stimulation with 10 μg/ml lipopolysaccharide (LPS). Usually 5×10^5 cells/ml were present by this preparation. The LPS-treated suspensions were incubated for 16 hours at 37° C. under 5% CO2 to induce COX-2. Then the culture medium was removed and the macrophages were washed two times with PBS. Then 130 μl RPMI-1640 culture medium was added to each well and the macrophage solutions were incubated at 37° C. for 10 minutes, which was followed by the treatment with 10 μM arachidonic acid and an appropriate amount of compounds of this invention. The plate was incubated for another 10 minutes. The upper solution was collected using a micropipette and was subjected to determination of PGE2 amount in the solution. The amount of PGE2 present in the collected solution was determined either by a known radio-immuno assay or by a known enzyme-immunoassay [Methods in Enzymol. 86, 258 (1982); Methods in Enzymol. 187, 24 (1990)]. The extent of COX-2 inhibition by a compound of the present invention was calculated by assuming, that the amount of PGE2 formed with the treatment of 10 μg/ml arachidonic acid was used is the maximum possible amount of PGE2, and that the amount of PGE2 formed without the treatment of arachidonic acid is the minimum possible amount of PGE2.
In the evaluation of COX-1 inhibitory activity by a compound of the present invention, the same procedures employed for evaluation of COX-2 activity were employed, except omitting the following two steps: 1) the treatment with aspirin for knockout of COX-1 activity and 2) treatment with LPS for induction of COX-2.
as §3

Row | SMILES | IC50, μg/ml COX-2 (COX-2) [µg/mL] | IC50, μg/ml COX-1 (COX-1) [µg/mL] | IC50 (COX-2; read-out: IC50, μg/ml COX-2 (converted)) [µM] | IC50 (COX-1; read-out: IC50, μg/ml COX-1 (converted)) [µM] | melting point [°C]
1 | CC1(C)OC(c2ccc(S(C)(=O)=O)cc2)=C(c2cccs2)C1=O [Example 113] | 0.03 (≈ 0.0861 µM) | 3 (≈ 8.61 µM) | – | – | –
2 | CCCc1ccc(C2=C(c3ccc(S(C)(=O)=O)cc3)OC(C)(CC)C2=O)cc1 (centres unmarked) [Example 202] | – | – | 0.0753 | 7.53 | –
3 | CC1(C)OC(c2ccc(S(C)(=O)=O)c(Br)c2)=C(c2cccc(Cl)c2)C1=O [Example 342] | 0.02 (≈ 0.0439 µM) | 30 (≈ 65.8 µM) | – | – | –
4 | CC(O)c1ccc(C2=C(c3ccc(S(C)(=O)=O)cc3)OC(C)(C)C2=O)cc1 (centres unmarked) [Example 111, 2,2-Dimethyl-4-{4-(1-hydroxyethyl)phenyl}-5-{4-(methylsulfonyl)phenyl}-3(2H)-furanone] | 0.3 (≈ 0.776 µM) | 50 (≈ 129 µM) | – | – | –
5 | Cc1cc(C2=C(c3cc(F)cc(F)c3)C(=O)C(C)(C)O2)ccc1S(C)(=O)=O [Example 382, 4-(3,5-Difluorophenyl)-2,2-dimethyl-5-{3-methyl-4-(methylsulfonyl)phenyl}-3(2H)-furanone] | 0.08 (≈ 0.204 µM) | 200 (≈ 510 µM) | – | – | –
6 | CS(=O)(=O)c1ccc(C2=C(c3ccccc3)C(=O)C3(CCCC3)O2)cc1 [Example 53, 2-{(4-Methylsulfonyl)phenyl}-3phenyl-1-oxa-spiro[4,4]non-2-en-4-one] | 0.03 (≈ 0.0814 µM) | 5 (≈ 13.6 µM) | – | – | –
7 | CCNS(=O)(=O)c1ccc(C2=C(c3ccccc3)C(=O)C(C)(C)O2)cc1Cl [Example 373, 5-{3-Chloro-4-(N-ethylaminosulfonyl)phenyl}-2,2-dimethyl-4-phenyl-3(2H)-furanone] | 0.3 (≈ 0.739 µM) | 600 (≈ 1480 µM) | – | – | –
8 | COc1cccc(C2=C(c3ccc(S(C)(=O)=O)cc3)OC(C)(C)C2=O)c1 [Example 95] | 0.1 (≈ 0.268 µM) | 30 (≈ 80.5 µM) | – | – | –
9 | Cc1cc(C2=C(c3cc(F)cc(F)c3)C(=O)C(C)(C)O2)ccc1S(N)(=O)=O [Example 384, 5-{4-(Aminosulfonyl)-3-methylphenyl}-4-(3-difluorophenyl)-2,2-dimethyl-3(2H)-furanone] | 0.08 (≈ 0.203 µM) | 30 (≈ 76.3 µM) | – | – | –
10 | CSc1ccc(C2=C(c3cccc(Cl)c3)C(=O)C(C)(C)O2)cc1 [Example 168, 4-(3-chlorophenyl)-2,2-dimethyl-5-{4-(methylthio)phenyl}-3(2H)-furanone] | 0.5 (≈ 1.45 µM) | 3 (≈ 8.7 µM) | – | – | –
11 | CC1(C)OC(c2ccc(S(C)(=O)=O)cc2)=C(c2ccc(F)c(F)c2)C1=O [Example 80] | – | 5 (≈ 13.2 µM) | – | – | 162
12 | CC1(C)OC(c2ccc(S(C)(=O)=O)cc2)=C(c2ccsc2)C1=O [Example 17, 2,2-Dimethyl-5-{4-(methylsulfonyl)phenyl}4-(3-thienyl)-3(2H)-furanone] | 0.2 (≈ 0.574 µM) | 30 (≈ 86.1 µM) | – | – | –
13 | CC1(C)OC(c2ccc(S(C)(=O)=O)cc2)=C(c2ccco2)C1=O [Example 18, 2,2-Dimethyl-4-(2-furanyl)-5-{4-(methylsulfonyl)phenyl}-3(2H)-furanone] | 0.2 (≈ 0.602 µM) | 30 (≈ 90.3 µM) | – | – | –
14 | CC1(C)OC(c2ccc(S(C)(=O)=O)c(Br)c2)=C(c2cc(F)ccc2F)C1=O [Example 344] | 0.08 (≈ 0.175 µM) | 200 (≈ 437 µM) | – | – | –
15 | CCC1(CC)OC(c2ccc(S(C)(=O)=O)cc2)=C(c2ccc(C(C)=O)cc2)C1=O [Example 49, 4-(4-Acetylphenyl)-2,2-diethyl-5-{4-(methylsulfonyl)phenyl}-3(2H)-furanone] | 0.3 (≈ 0.727 µM) | 30 (≈ 72.7 µM) | – | – | –
16 | CCC1(C)OC(c2ccc(S(C)(=O)=O)cc2)=C(c2cccnc2)C1=O (centres unmarked) [Example 36, 2-Ethyl-2-methyl-5-{4-(methylsulfonyl)phenyl}-4-(3-pyridyl)-3(2H)-furanone] | 0.2 (≈ 0.56 µM) | 50 (≈ 140 µM) | – | – | –
17 | CCC1(C)OC(c2ccc(S(C)(=O)=O)cc2)=C(c2ccc(C)s2)C1=O (centres unmarked) [Example 225] | 0.03 (≈ 0.0797 µM) | 3 (≈ 7.97 µM) | – | – | –
18 | CC(C)c1ccc(C2=C(c3ccc(S(C)(=O)=O)cc3)OC3(CCCC3)C2=O)cc1 [Example 54, 3-(4-Isopropylphenyl)-2-{4-(methylsulfonyl)phenyl}-1-oxa-spiro[4,4]non-2-en-4-one] | 0.05 (≈ 0.122 µM) | – | – | – | –
19 | CCC1(CC)OC(c2ccc(S(C)(=O)=O)cc2)=C(c2ccc(OC)c(F)c2)C1=O [Example 50, 2,2-Diethyl-4-(3-fluoro-4-methoxyphenyl)-5-{4-(methylsulfonyl)phenyl}-3(2H)-furanone] | 0.03 (≈ 0.0717 µM) | 20 (≈ 47.8 µM) | – | – | –
20 | CC1(C)OC(c2ccc(S(N)(=O)=O)c(F)c2)=C(c2ccccc2)C1=O [Example 300, 5-{4(Aminosulfonyl)-3-fluorophenyl}-2,2-dimethyl-4-phenyl-3(2H)-furanone] | 0.03 (≈ 0.083 µM) | 20 (≈ 55.3 µM) | – | – | –
21 | CC1(C)OC(c2ccc(S(C)(=O)=O)cc2)=C(c2ccccc2Cl)C1=O [Example 69] | – | 50 (≈ 133 µM) | – | – | 100 to 103
